Bounds are passed on as bounds.

This test addresses T1, human TLR7 (Homo sapiens, UniProt Q9NYK1).
T1 construct: expressed in transfected cells; host or cells: HEK293 cell line stably expressing the pNiFty2-SEAP reporter plasmid; TLR7 in pUNO vector, blasticidin selection
T1 sequence (Q9NYK1 27-1049): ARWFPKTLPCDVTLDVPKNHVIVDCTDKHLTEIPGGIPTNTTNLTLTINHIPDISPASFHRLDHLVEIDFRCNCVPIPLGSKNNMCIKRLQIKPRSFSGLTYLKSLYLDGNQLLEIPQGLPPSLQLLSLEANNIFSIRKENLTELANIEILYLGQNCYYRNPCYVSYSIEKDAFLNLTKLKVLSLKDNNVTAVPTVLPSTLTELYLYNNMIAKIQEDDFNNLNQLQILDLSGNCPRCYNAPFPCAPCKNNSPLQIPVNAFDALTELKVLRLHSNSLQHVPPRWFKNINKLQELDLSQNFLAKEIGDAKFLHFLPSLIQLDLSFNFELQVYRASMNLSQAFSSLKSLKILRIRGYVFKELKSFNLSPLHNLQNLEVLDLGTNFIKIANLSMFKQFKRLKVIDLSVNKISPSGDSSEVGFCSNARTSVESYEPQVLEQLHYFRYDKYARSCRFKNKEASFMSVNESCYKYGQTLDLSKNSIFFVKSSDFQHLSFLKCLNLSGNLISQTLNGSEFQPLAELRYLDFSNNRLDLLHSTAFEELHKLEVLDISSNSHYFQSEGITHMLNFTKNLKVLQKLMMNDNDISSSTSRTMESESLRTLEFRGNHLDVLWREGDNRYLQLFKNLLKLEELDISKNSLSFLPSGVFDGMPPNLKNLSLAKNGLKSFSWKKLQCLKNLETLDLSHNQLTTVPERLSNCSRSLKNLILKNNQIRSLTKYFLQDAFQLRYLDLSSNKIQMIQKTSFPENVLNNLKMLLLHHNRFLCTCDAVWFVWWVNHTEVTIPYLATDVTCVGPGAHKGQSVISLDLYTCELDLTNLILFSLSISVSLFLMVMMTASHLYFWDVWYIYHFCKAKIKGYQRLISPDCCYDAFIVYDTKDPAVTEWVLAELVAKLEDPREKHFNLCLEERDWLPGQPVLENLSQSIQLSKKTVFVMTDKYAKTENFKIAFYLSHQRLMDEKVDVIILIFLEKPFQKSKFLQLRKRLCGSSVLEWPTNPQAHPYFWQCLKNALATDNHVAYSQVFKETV
Kind of test: Human TLR7 Assay (SEAP reporter in HEK293 cells).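 Also: Read-out is secreted alkaline phosphatase made under an NFkB/ELAM-1 composite promoter, reporting TLR7-triggered NFkB activation.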 Type of test: cell-based. Conditions: HEK293 cell line expressing human TLR7 and pNiFty2-SEAP reporter, overnight incubation at 37° C., 0.1% DMSO; read-out: hTLR7 EC50.
What is called EC50 is the concentration that produces a half-maximal response. As for `CCN(CC)CC(=O)N(CCCn1c(CCOC)nc2c(N)nc3ccccc3c21)Cc1cccc(OCC(=O)OC2CCOCC2)c1` [Example 82, Tetrahydro-2H-pyran-4-yl 2-{3-[(N-{3-[4-amino-2-(2-methoxyethyl)-1H-imidazo[4,5-c]quinolin-1-yl]propyl}-2-{diethylamino}acetamido)methyl]phenoxy}acetate], the EC50 was found to be 115 nM.
The result for `CCCCOC(=O)COc1cccc(CN(CCCn2c(CCOC)nc3c(N)nc4ccccc4c32)C(=O)CN(CC)CC)c1` [Example 83, Butyl 2-{3-[(N-{3-[4-amino-2-(2-methoxyethyl)-1H-imidazo[4,5-c]quinolin-1-yl]propyl}-2-{diethylamino}acetamido)methyl]phenoxy}acetate] reads 61.3 nM; that for `CCOC(=O)COc1cccc(CN(CCCn2c(CCOC)nc3c(N)nc4ccccc4c32)C(=O)CN(CC)CC)c1OC` [Example 89, Ethyl 2-{3-[(N-{3-[4-amino-2-(2-methoxyethyl)-1H-imidazo[4,5-c]quinolin-1-yl]propyl}-2-{diethylamino}acetamido)methyl]-2-methoxyphenoxy}acetate], 95.7 nM; that for `CCN(CC)CC(=O)N(CCCn1c(CCOC)nc2c(N)nc3ccccc3c21)Cc1cccc(OCC(=O)OC(C)C)c1OC` [Example 90, Isopropyl 2-{3-[(N-{3-[4-amino-2-(2-methoxyethyl)-1H-imidazo[4,5-c]quinolin-1-yl]propyl}-2-{diethylamino}acetamido)methyl]-2-methoxyphenoxy}acetate], 81 nM.
The result for `CCOC(=O)COc1cccc(CN(CCCn2c(CCOC)nc3c(N)nc4ccccc4c32)C(=O)CN(CC)CC)c1F` [Example 93, Ethyl 2-{3-[(N-{3-[4-amino-2-(2-methoxyethyl)-1H-imidazo[4,5-c]quinolin-1-yl]propyl}-2-{diethylamino}acetamido)methyl]-2-fluorophenoxy}acetate] reads 73.9 nM; that for `CCOC(=O)COc1cccc(CN(CCCn2c(CCOC)nc3c(N)nc4ccccc4c32)C(=O)CN(C)C)c1F` [Example 95, Ethyl 2-{3-[(N-{3-[4-amino-2-(2-methoxyethyl)-1H-imidazo[4,5-c]quinolin-1-yl]propyl}-2-{dimethylamino}acetamido)methyl]-2-fluorophenoxy}acetate], 447 nM.
For the compound `COCCc1nc2c(N)nc3ccccc3c2n1CCCN(Cc1cccc(OCC(=O)OC(C)C)c1F)C(=O)CN(C)C` [Example 96, Isopropyl 2-{3-[(N-{3-[4-amino-2-(2-methoxyethyl)-1H-imidazo[4,5-c]quinolin-1-yl]propyl}-2-{dimethylamino}acetamido)methyl]-2-fluorophenoxy}acetate], the EC50 amounted to 304 nM.
The result for `CCOC(=O)COc1cccc(CN(CCCn2c(CCOC)nc3c(N)nc4ccccc4c32)C(=O)CN(C)CC)c1F` [Example 97, Ethyl 2-{3-[(N-{3-[4-amino-2-(2-methoxyethyl)-1H-imidazo[4,5-c]quinolin-1-yl]propyl}-2-{ethyl(methyl)amino}acetamido)methyl]-2-fluorophenoxy}acetate] reads 256 nM; that for `CCN(C)CC(=O)N(CCCn1c(CCOC)nc2c(N)nc3ccccc3c21)Cc1cccc(OCC(=O)OC(C)C)c1F` [Example 98, Isopropyl 2-{3-[(N-{3-[4-amino-2-(2-methoxyethyl)-1H-imidazo[4,5-c]quinolin-1-yl]propyl}-2-{ethyl(methyl)amino}acetamido)methyl]-2-fluorophenoxy}acetate], 228 nM.
Under `CCOC(=O)COc1cccc(CN(CCn2c(CCOC)nc3c(N)nc4ccccc4c32)C(=O)CN(CC)CC)c1` [Example 101, Ethyl 2-{3-[(N-{2-[4-amino-2-(2-methoxyethyl)-1H-imidazo[4,5-c]quinolin-1-yl]ethyl}-2-{diethylamino}acetamido)methyl]phenoxy}acetate] stands > 10000 nM.
Under `CCN(CC)CC(=O)N(CCn1c(CCOC)nc2c(N)nc3ccccc3c21)Cc1cccc(OCC(=O)OC)c1` [Example 102, Methyl 2-{3-[(N-{2-[4-amino-2-(2-methoxyethyl)-1H-imidazo[4,5-c]quinolin-1-yl]ethyl}-2-{diethylamino}acetamido)methyl]phenoxy}acetate] stands > 10000 nM; under `CCN(CC)CC(=O)N(CCn1c(CCOC)nc2c(N)nc3ccccc3c21)Cc1cccc(OCC(=O)OC(C)C)c1` [Example 103, Isopropyl 2-{3-[(N-{2-[4-amino-2-(2-methoxyethyl)-1H-imidazo[4,5-c]quinolin-1-yl]ethyl}-2-{diethylamino}acetamido)methyl]phenoxy}acetate], > 10000 nM; under `CCOC(=O)C(C)(C)Oc1cccc(CN(CCn2c(CCOC)nc3c(N)nc4ccccc4c32)C(=O)CN(CC)CC)c1` [Example 106, Ethyl 2-{3-[(N-{2-[4-amino-2-(2-methoxyethyl)-1H-imidazo[4,5-c]quinolin-1-yl]ethyl}-2-{diethylamino}acetamido)methyl]phenoxy}-2-methylpropanoate], > 10000 nM.
As for `CCN(CC)CC(=O)N(CCn1c(CCOC)nc2c(N)nc3ccccc3c21)Cc1cccc(OC(C)(C)C(=O)OC)c1` [Example 107, Methyl 2-{3-[(N-{2-[4-amino-2-(2-methoxyethyl)-1H-imidazo[4,5-c]quinolin-1-yl]ethyl}-2-{diethylamino}acetamido)methyl]phenoxy}-2-methylpropanoate], the EC50 is > 10000 nM.
The result for `COCCc1nc2c(N)nc3ccccc3c2n1CCCN(Cc1cccc(OCC(=O)OC2CCCC2)c1)C(=O)CN(C)C` [Example 110, Cyclopentyl 2-{3-[(N-{3-[4-amino-2-(2-methoxyethyl)-1H-imidazo[4,5-c]quinolin-1-yl]propyl}-2-{dimethylamino}acetamido)methyl]phenoxy}acetate] reads 128 nM; that for `CCN(C)CC(=O)N(CCCn1c(CCOC)nc2c(N)nc3ccccc3c21)Cc1cccc(OCC(=O)OC2CCCC2)c1` [Example 111, Cyclopentyl 2-{3-[(N-{3-[4-amino-2-(2-methoxyethyl)-1H-imidazo[4,5-c]quinolin-1-yl]propyl}-2-{ethyl(methyl)amino}acetamido)methyl]phenoxy}acetate], 123 nM.
`COCCc1nc2c(N)nc3ccccc3c2n1CCCN(Cc1cccc(OCC(=O)OC(C)C)c1)C(=O)CN1CCOCC1` [Example 112, Isopropyl 2-{3-[(N-{3-[4-amino-2-(2-methoxyethyl)-1H-imidazo[4,5-c]quinolin-1-yl]propyl}-2-morpholinoacetamido)methyl]phenoxy}acetate]: the EC50 was determined as 756 nM.
The result for `COCCc1nc2c(N)nc3ccccc3c2n1CCCN(Cc1cccc(OCC(=O)OC(C)C)c1)C(=O)CN(C)C` [Example 113, Isopropyl 2-{3-[(N-{3-[4-amino-2-(2-methoxyethyl)-1H-imidazo[4,5-c]quinolin-1-yl]propyl}-2-{dimethylamino}acetamido)methyl]phenoxy}acetate] reads 83.4 nM.
The result for `CCN(C)CC(=O)N(CCCn1c(CCOC)nc2c(N)nc3ccccc3c21)Cc1cccc(OCC(=O)OC(C)C)c1` [Example 114, Isopropyl 2-{3-[(N-{3-[4-amino-2-(2-methoxyethyl)-1H-imidazo[4,5-c]quinolin-1-yl]propyl}-2-{ethyl(methyl)amino}acetamido]methyl)phenoxy}acetate] reads 67.8 nM.
The result for `COCCc1nc2c(N)nc3ccccc3c2n1CCCN(Cc1cccc(OCC(=O)OC(C)C)c1)C(=O)CN(C)CCOC` [Example 115, Isopropyl 2-{3-[(N-{3-[4-amino-2-(2-methoxyethyl)-1H-imidazo[4,5-c]quinolin-1-yl]propyl}-2-{(2-methoxyethyl)(methyl)amino}acetamido)methyl]phenoxy}acetate] reads 173 nM; that for `CCN(CC)CC(=O)N(CCCn1c(CCOC)nc2c(N)nc3ccccc3c21)Cc1ccc(F)c(OCC(=O)OC(C)C)c1` [Example 118, Isopropyl 2-{5-[(N-{3-[4-amino-2-(2-methoxyethyl)-1H-imidazo[4,5-c]quinolin-1-yl]propyl}-2-{diethylamino}acetamido)methyl]-2-fluorophenoxy}acetate], 77.4 nM.
`CCOC(=O)COc1cc(CN(CCCn2c(CCOC)nc3c(N)nc4ccccc4c32)C(=O)CN(CC)CC)ccc1F` [Example 119, Ethyl 2-{5-[(N-{3-[4-amino-2-(2-methoxyethyl)-1H-imidazo[4,5-c]quinolin-1-yl]propyl}-2-{diethylamino}acetamido)methyl]-2-fluorophenoxy}acetate]: the EC50 was determined as 93.2 nM.

Source of the values: patent US20110136801A1, “Novel Compounds” (Dainippon Sumitomo Pharma Co. Ltd., priority 2009, published 2011).
